# ChEMBL document CHEMBL1201862, “PubChem BioAssay data set” (2004)
# Activity calls are given as the source filed them.
# What was measured:
# HEK293 = assay: HEK293T cell cytotoxicity, dose response, cytotoxicity control, ATP luminescence, cherry-pick samples (AID 687005); type: functional, cell-based; conditions: Homo sapiens;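 also: cells exposed to compound for 48 hours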
# [1] = HEK293 Cytotoxicity Assay Measured in Cell-Based System Using Plate Reader - 7071-01_Inhibitor_Dose_CherryPick_Activity_Set2.; type: functional
# HeLa = assay: HeLa cell cytotoxicity, dose response, cytotoxicity control, ATP luminescence, cherry-pick samples (AID 687004); type: functional, cell-based; conditions: Homo sapiens
# Kallikrein-7 = Kallikrein-7 (Homo sapiens, UniProt P49862); assay: Fluorescence Intensity-based biochemical primary high throughput dose response assay to identify activators of kallikrein-7 (K7) zymogen.
# [2] = Late stage assay provider results from the probe development effort to identify inhibitors of the Plasmodium falciparum M18 Aspartyl Aminopeptidase (M18AAP): radiolabel-based cell-based dose response assay to identify compounds that inhibit P. falciparum growth in RBCs, Set 2..; type: functional
# [3] = MITF Measured in Cell-Based System Using Plate Reader - 2084-01_Inhibitor_Dose_DryPowder_Activity_Set7.; type: functional
# [4] = MITF Orthogonal Assay: SK-MEL-5 CTG Assay Measured in Cell-Based System Using Plate Reader - 2084-02_Inhibitor_Dose_DryPowder_Activity_Set5.; type: functional
# [5] = A375 melanoma cell viability loss, dose response, counter-screen for MITF inhibitor project, CellTiter-Glo luminescence, dry powder, set 4 (AID 624364); type: functional, cell-based; conditions: A-375;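 also: A375 melanoma cells are MITF independent so this is a counter screen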
# [6] = MITF Measured in Cell-Based System Using Plate Reader - 2084-01_Inhibitor_Dose_DryPowder_Activity_Set6.; type: functional
# [7] = SK-MEL-5 parental cell viability reduction, dose response, orthogonal assay for MITF inhibitor project, CellTiter-Glo luminescence, dry powder, set 8 (AID 651586); type: functional, cell-based
# [8] = TRPM1 promoter luciferase reporter signal decrease, dose response, MITF inhibitor project, cell-based, SK-MEL-5, dry powder, set 9 (AID 651588); type: functional
# [9] = Shn3 3'UTR reporter inhibitors, dose response, cell-based, Clone20 osteoblasts, firefly luciferase, cherry-picked (AID 624132); type: functional;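 also: firefly luciferase luminescence from reporter carrying the Shn3 3'UTR in osteoblasts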
# Galanin receptor type 3 = molecular target: T1, Galanin receptor type 3 (Homo sapiens, UniProt O60755); assay: Fluorescence-based cell-based primary high throughput dose response assay to identify antagonists of the Galanin Receptor 3 (GalR3).; type: functional
# T1 sequence (O60755 whole entry): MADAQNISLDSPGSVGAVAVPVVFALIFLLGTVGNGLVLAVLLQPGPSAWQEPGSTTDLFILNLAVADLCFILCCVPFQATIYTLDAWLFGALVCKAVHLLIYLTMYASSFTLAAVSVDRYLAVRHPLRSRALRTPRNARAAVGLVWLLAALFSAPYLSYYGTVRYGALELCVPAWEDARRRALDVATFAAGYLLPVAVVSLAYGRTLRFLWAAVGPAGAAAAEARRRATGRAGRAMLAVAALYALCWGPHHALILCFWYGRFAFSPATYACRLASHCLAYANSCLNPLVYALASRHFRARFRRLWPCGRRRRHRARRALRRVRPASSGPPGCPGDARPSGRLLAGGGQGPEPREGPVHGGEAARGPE
# cells = type: functional, cell-based; conditions: HEK-CNG
# [10] = molecular target: COUP transcription factor 2 (Homo sapiens, UniProt P24468); assay: Luminescence-based cell-based high throughput dose response assay to identify inhibitors of COUP-TFII (NR2F2).; type: functional;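 also: HEK293 cells transiently cotransfected with COUP-TFII expression vector and reporter; luciferase reporter luminescence driven by COUP-TFII from the pX2-168 reporter plasmid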
# [11] = HepG2 cell cytotoxicity, dose response, cytotoxicity control for Shn3 inhibitor project, CellTiter-Glo, cherry-picked (AID 624134); type: functional, cell-based
# [12] = control 3'UTR Renilla luciferase suppression, dose response, counter-screen for Shn3 inhibitor project, cell-based, Clone20-Shn3RL, cherry-picked (AID 624133); type: functional
# [13] = reduction of Shn3 3'UTR firefly luciferase signal, dose response, Schnurri-3 inhibitor project, cell-based, Clone20 osteoblasts, cherry-pick, set 2 (AID 720490); type: functional;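 also: actives lower the luminescence signal as inhibitors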
# [14] = molecular target: Potassium channel subfamily K member 3 (Rattus norvegicus, UniProt O54912); assay: SAR analysis for the identification of selective inhibitors of the two-pore domain potassium channel TASK1(KCNK3):Automated Electrophysiology.; type: functional
# [15] = molecular target: Potassium channel subfamily K member 3 (Homo sapiens, UniProt O14649); assay: TASK1 (KCNK3) potassium channel inhibitors, SAR follow-up, CHO cells, FluxOR thallium flux (AID 652212); type: functional
# [16] = molecular target: T2, NAD-dependent protein deacylase sirtuin-5, mitochondrial (Homo sapiens, UniProt Q9NXA8); assay: SIRT5 desuccinylase inhibitors, dose response, biochemical, fluorescence imaging, cherry-pick, set 5 (AID 720591);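 also: desuccinylation of succinyl peptide AMC substrate read as fluorescence after trypsin release; potency of inhibitors that lower fluorescence and may act on trypsin instead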
# [17] = inhibitors of intracellular T. cruzi replication, confirmation, NIH3T3 host cells, beta-gal luminescence (AID 2044); type: functional, cell-based;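 also: intracellular parasites grown in NIH/3T3 mouse fibroblasts as host cells; luminescent beta-galactosidase reporter signal from transgenic T. cruzi replicating inside host cells; inhibitors lower the luminescence signal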
# [18] = cytotoxicity toward NIH3T3 fibroblasts, dose response, counter-screen, cell-based, ATP luminescence, mouse fibroblasts (AID 2010); type: functional;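 also: cells exposed to compound for about 90 hours before reading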
# [19] = NIH/3T3 fibroblast cytotoxicity, dose response, cytotoxicity control, cell-based, plate reader, dry powder, set 2 (AID 652280); type: functional; conditions: NIH3T3
# [20] = NIH/3T3 fibroblast cytotoxicity, dose response, cytotoxicity control, cell-based, dry powder samples (AID 651844); type: functional; conditions: NIH3T3
# [21] = molecular target: T2, NAD-dependent protein deacylase sirtuin-5, mitochondrial; assay: SIRT5 deacylase inhibitors, dose response, biochemical, fluorescence imaging, cherry-pick, set 6 (AID 720597)
# [22] = HepG2 cell cytotoxicity, dose response, cytotoxicity control, ATP luminescence, cherry-pick, set 6 (AID 1053125); type: functional, cell-based
# Caspase-6 = Caspase-6 (Homo sapiens, UniProt P55212); assay: human caspase-6 inhibitors, dose response, biochemical, VEID-R110 fluorescence, cherry-pick (AID 720632)
# Caspase-7 = Caspase-7 (Homo sapiens, UniProt P55210); assay: human caspase-7 inhibitors, dose response, selectivity assay for caspase-6 inhibitor project, biochemical, DEVD-R110 fluorescence, cherry-pick (AID 743295)
# Protein skinhead-1 = molecular target: T3, Protein skinhead-1 (Caenorhabditis elegans, UniProt P34707); type: functional
# T3 sequence (P34707 whole entry): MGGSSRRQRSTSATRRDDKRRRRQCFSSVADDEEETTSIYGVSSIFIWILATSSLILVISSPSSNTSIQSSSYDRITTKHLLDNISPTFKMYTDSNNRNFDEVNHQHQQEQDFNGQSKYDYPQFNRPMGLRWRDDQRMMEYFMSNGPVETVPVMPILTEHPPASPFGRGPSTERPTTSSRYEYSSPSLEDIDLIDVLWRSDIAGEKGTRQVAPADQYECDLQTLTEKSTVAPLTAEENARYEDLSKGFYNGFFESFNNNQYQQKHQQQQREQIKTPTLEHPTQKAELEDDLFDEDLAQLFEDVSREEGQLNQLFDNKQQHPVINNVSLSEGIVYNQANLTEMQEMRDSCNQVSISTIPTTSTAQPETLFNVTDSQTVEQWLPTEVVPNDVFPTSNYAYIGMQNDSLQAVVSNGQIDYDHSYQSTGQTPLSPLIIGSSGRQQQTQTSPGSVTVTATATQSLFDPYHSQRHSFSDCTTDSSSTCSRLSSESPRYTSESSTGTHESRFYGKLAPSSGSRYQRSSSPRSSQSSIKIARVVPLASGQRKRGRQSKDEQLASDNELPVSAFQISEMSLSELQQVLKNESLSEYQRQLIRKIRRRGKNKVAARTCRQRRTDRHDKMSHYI
# [23] = molecular target: T4, Histone-lysine N-methyltransferase NSD2 (Homo sapiens, UniProt O96028); type: biochemical
# T4 sequence (O96028 whole entry): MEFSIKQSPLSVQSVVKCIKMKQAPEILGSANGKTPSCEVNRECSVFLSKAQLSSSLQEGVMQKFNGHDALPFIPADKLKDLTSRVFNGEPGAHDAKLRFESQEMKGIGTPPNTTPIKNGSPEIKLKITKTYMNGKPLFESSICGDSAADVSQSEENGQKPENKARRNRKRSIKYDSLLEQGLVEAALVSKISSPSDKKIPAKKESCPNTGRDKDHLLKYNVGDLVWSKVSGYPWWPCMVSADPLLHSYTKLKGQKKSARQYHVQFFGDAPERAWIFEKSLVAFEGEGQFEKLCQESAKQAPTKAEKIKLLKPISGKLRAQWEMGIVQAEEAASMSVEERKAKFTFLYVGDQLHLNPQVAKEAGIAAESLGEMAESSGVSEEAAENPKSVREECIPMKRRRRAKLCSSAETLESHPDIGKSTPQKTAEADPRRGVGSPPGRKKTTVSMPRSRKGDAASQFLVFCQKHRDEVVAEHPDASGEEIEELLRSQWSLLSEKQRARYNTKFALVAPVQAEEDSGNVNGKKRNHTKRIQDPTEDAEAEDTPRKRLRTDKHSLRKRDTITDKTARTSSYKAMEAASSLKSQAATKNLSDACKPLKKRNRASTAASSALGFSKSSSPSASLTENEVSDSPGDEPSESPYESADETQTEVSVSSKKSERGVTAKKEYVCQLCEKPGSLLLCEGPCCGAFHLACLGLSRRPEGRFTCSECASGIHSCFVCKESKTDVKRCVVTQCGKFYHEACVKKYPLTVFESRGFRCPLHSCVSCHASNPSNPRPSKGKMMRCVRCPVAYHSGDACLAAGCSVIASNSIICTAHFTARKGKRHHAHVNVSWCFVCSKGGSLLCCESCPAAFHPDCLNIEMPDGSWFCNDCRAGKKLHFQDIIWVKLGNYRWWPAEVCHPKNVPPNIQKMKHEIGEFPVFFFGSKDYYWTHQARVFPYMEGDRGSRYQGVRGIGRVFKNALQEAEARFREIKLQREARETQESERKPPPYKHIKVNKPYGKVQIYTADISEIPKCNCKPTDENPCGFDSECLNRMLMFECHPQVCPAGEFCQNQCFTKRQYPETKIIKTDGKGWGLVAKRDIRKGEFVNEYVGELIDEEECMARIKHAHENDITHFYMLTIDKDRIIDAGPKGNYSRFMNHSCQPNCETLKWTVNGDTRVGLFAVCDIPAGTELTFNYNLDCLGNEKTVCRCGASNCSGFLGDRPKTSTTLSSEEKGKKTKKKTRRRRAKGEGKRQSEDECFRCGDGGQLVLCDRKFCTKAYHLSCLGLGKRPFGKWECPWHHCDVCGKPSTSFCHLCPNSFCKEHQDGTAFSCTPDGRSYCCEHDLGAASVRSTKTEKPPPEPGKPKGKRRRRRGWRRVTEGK
# [24] = molecular target: T5, DNA repair protein RAD52 homolog (Homo sapiens, UniProt P43351); type: functional, biochemical
# T5 sequence (P43351 whole entry): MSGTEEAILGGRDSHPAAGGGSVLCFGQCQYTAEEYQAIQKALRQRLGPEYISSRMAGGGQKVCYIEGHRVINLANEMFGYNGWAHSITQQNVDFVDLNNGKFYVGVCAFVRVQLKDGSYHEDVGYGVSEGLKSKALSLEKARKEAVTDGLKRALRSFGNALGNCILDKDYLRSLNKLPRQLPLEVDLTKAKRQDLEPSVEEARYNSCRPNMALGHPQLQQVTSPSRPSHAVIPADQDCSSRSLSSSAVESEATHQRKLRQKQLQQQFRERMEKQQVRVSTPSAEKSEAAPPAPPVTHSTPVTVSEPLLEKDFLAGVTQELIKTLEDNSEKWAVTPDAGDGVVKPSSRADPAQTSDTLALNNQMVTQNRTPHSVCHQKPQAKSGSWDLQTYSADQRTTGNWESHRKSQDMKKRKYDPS
# T2 sequence (Q9NXA8 whole entry): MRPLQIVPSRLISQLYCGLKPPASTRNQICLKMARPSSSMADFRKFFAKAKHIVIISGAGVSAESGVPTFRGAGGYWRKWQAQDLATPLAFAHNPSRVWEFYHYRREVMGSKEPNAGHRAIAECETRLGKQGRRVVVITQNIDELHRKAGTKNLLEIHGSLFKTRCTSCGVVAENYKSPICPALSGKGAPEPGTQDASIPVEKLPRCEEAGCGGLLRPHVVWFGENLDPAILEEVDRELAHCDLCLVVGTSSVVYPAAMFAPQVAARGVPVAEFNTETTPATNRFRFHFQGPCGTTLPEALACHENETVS
# Sequence of Kallikrein-7 (P49862 whole entry): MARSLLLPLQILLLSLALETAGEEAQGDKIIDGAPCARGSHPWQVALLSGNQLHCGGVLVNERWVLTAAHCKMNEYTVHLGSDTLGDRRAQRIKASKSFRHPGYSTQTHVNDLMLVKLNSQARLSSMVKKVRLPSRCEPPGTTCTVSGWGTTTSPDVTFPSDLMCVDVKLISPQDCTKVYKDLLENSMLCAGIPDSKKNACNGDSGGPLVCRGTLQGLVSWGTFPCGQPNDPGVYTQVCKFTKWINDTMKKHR
# Sequence of Potassium channel subfamily K member 3 (Homo sapiens, UniProt O14649) (O14649 whole entry): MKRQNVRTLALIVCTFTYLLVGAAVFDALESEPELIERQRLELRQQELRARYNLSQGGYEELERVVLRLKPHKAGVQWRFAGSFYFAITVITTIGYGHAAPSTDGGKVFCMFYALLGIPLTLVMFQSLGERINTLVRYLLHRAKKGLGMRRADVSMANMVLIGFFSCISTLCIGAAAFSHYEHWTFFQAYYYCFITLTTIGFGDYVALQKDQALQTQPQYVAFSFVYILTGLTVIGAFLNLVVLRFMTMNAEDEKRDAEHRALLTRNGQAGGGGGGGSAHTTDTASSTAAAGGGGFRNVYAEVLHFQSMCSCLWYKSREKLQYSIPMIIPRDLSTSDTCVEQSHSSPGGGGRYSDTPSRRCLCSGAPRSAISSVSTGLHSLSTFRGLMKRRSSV
# Sequence of Potassium channel subfamily K member 3 (Rattus norvegicus, UniProt O54912) (O54912 whole entry, the tested form may be a part): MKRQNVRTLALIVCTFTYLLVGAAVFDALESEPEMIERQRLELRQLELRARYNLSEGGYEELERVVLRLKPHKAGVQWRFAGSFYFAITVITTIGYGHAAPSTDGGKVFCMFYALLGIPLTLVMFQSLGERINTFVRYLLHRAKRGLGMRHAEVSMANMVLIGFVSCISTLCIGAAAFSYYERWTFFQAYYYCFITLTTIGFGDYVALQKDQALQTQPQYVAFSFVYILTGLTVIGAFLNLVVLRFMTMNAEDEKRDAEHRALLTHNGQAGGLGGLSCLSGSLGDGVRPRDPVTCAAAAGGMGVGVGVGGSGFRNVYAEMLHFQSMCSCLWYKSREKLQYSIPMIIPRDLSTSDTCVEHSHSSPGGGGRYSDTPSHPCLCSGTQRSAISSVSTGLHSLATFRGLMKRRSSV
# Sequence of Caspase-7 (P55210 24-198 limits assumed): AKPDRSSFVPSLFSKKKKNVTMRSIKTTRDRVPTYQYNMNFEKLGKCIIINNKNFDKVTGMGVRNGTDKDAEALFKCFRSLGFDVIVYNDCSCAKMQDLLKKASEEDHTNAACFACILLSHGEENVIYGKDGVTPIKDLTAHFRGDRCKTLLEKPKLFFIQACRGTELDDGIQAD
# Sequence of Caspase-7 (P55210 207-303 limits assumed): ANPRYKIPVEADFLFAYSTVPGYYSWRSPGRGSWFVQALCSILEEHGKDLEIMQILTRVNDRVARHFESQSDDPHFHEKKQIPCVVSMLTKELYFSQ
# Sequence of COUP transcription factor 2 (P24468 whole entry): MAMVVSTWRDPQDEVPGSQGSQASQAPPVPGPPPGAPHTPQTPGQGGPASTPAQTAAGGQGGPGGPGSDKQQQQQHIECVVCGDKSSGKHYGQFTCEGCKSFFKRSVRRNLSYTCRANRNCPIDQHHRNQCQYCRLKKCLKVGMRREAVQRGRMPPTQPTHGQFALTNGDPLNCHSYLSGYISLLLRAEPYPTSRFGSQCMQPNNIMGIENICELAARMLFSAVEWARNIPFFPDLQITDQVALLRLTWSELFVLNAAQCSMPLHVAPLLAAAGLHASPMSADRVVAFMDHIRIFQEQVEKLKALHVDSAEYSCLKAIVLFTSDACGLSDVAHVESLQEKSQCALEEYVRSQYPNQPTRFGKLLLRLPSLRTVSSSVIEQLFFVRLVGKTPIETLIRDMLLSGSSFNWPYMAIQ
# Sequence of Caspase-6 (P55212 24-179 limits assumed): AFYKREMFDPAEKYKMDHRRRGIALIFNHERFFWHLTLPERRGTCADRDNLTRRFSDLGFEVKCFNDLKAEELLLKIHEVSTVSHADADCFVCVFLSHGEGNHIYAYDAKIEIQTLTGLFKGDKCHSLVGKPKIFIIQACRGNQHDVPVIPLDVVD
# Sequence of Caspase-6 (P55212 194-293 limits assumed): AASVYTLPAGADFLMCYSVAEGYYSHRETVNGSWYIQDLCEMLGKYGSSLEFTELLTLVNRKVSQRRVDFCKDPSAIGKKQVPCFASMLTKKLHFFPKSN
smiles,measurement,setting,value
CC(C)CC#Cc1ccc2c(c1)O[C@H](CN(C)C(=O)C1CCC1)[C@@H](C)CN([C@@H](C)CO)S2(=O)=O,AC50,HEK293,15.8 µM (active)
same,AC50,[1],15.8 µM (active)
same,AC50,HeLa,> 52 µM (inactive)
Fc1ccc(-c2nc3cnccn3c2NC2CCCC2)cc1,EC50,Kallikrein-7,> 7.72 µM (active)
COc1ccc(CCN(C)c2c3ccccc3nc3ccccc23)cc1OC,IC50,[2],4.5 µM (active)
NC1=C(NS(=O)(=O)c2ccc(Br)s2)C(=O)c2ccccc2C1=O,AC50,[3],65.8 µM (active)
same,AC50,[4],> 70 µM (inactive)
same,AC50,[5],> 70 µM (inactive)
same,AC50,[6],> 70 µM (inactive)
same,AC50,[7],> 70 µM (inactive)
same,AC50,[8],> 70 µM (inactive)
O=C(CSc1nnc(-c2cccnc2)s1)Nc1ccnc2ccccc12,AC50,[9],0.661 µM (active)
same,IC50,Galanin receptor type 3,1.18 µM (active)
same,EC50,cells,> 29.9 µM (inactive)
same,IC50,[10],5.33 µM (active)
same,AC50,[11],39.3 µM (active)
same,AC50,[12],2.34 µM (active)
same,AC50,[13],1.19 µM (active)
Cc1cccc(C(=O)Nc2cccc(NC(=O)c3ccncc3)c2)c1,IC50,[14],2.14 µM (active)
same,IC50,[15],0.162 µM (active)
CN1CCN(C(=O)COc2ccc(N(C)S(=O)(=O)c3ccc(F)cc3)cc2)CC1,AC50,[16],> 30 µM (inactive)
same,EC50,[17],0.346 µM (active)
same,EC50,[18],> 60 µM (not active)
CC(C)N1C[C@H](C)[C@@H](CN(C)Cc2ccc(Oc3ccccc3)cc2)Oc2c(NC(=O)C3CCN(C)CC3)cccc2C1=O,AC50,[19],8.58 µM (active)
same,AC50,[20],8.58 µM (active)
COCC(=O)Nc1ccc2c(c1)OC[C@@H](C)N(CCc1ccccc1)C[C@@H](C)[C@H](OC)CN(C)C2=O,AC50,[21],> 30 µM (inactive)
CCOc1ccc2nc(NCCCNS(=O)(=O)c3ccc(F)cc3)c(C#N)cc2c1,AC50,[22],> 52 µM (inactive)
COc1cc(NCCCCC(C)N)c2nccc(C)c2c1 (configuration not stated),AC50,Caspase-6,4.77 µM (active)
same,AC50,Caspase-7,24.9 µM (active)
same,IC50,Protein skinhead-1,> 100 µM (inactive)
same,AC50,[23],2.52 µM (active)
same,AC50,[24],5.43 µM (active)
